# Patent US7179819B2, “VLA-4 inhibitor compounds” (Daiichi Pharmaceutical Co., Ltd., priority 1999, dated 2007)
# Structures can show the parent of a compound that is named as a salt.
row,Structure (SMILES),melting point
1,COc1cc(CC(=O)N2C[C@@H](N(C)C)C[C@H]2COc2ccc(C(=O)O)cc2)ccc1NC(=O)Nc1ccccc1C,147 to 150 °C
2,COc1cc(CC(=O)N2C[C@H](N(C)C)C[C@H]2COc2ccc(C(=O)O)cc2)ccc1NC(=O)Nc1ccccc1Cl,159 to 161 °C
3,COc1cc(CC(=O)N2C[C@@H](N(C)C)C[C@H]2COc2ccc(C(=O)O)cc2)ccc1NC(=O)Nc1ccccc1Cl,165 to 167 °C
4,COc1cc(CC(=O)N2CCCC2CN2CCN(CC(=O)O)CC2)ccc1NC(=O)Nc1ccccc1C (stereo not shown) (as salt: salt),160 to 170 °C
5,"COc1cc(CC(=O)N(C)CCOc2ccc(C(=O)O)cc2C(=O)O)ccc1NC(=O)Nc1ccccc1C (as salt: salt) [Compound 254, 4-[[2-[3-methoxy-4-[N′-(2-methylphenyl)ureido]phenylacetyl]methylamino]ethoxy]isophthalic acid]",139 to 141 °C
6,"COc1cc(CC(=O)N2CC(F)(F)C[C@H]2COc2ccc(C(=O)O)cc2)ccc1NC(=O)Nc1ccccc1C (stereo in doubt) [Compound 139, 4-[4,4-difluoro-1-[3-methoxy-4-[N′-(2-methylphenyl)ureido]phenylacetyl]-2-pyrrolidinylmethoxy]benzoic acid]",135 to 140 °C
7,"COc1cc(CC(=O)N2CSC[C@H]2COc2ccc(C(=O)O)cc2)ccc1NC(=O)Nc1ccccc1Cl (stereo in doubt) [Compound 169, 4-[3-[4-[N′-(2-chlorophenyl)ureido]-3-methoxyphenylacetyl]-4-thiazolidinyl]methoxybenzoic acid]",126 to 129 °C
8,"COc1cc(CC(=O)N2CSC[C@H]2COc2ccc(C(=O)O)cc2)ccc1NC(=O)Nc1ccccc1Br (stereo in doubt) [Compound 170, 4-[3-[4-[N′-(2-bromophenyl)ureido]-3-methoxyphenylacetyl]-4-thiazolidinyl]methoxybenzoic acid]",125 to 133 °C
9,"COc1cc(CC(=O)N2CCC[C@H]2C(=O)NC2CCC(C(=O)O)CC2)ccc1NC(=O)Nc1ccccc1C (stereo in doubt) [Compound 180, 4-[[1-[3-methoxy-4-[N′-(2-methylphenyl)ureido]phenylacetyl]-2-pyrrolidinyl]carbonylamino]cyclohexanecarboxylic acid]",136 to 142 °C
10,"COc1cc(CC(=O)N2CCC[C@H]2C(=O)NC2CCC(C(=O)O)CC2)ccc1NC(=O)Nc1ccccc1Cl (stereo in doubt) [Compound 181, 4-[[1-[4-[N′-(2-chlorophenyl)ureido]-3-methoxylphenylacetyl]-2-pyrrolidinyl]carbonylamino]cyclohexanecarboxylic acid]",135 to 140 °C
11,"Cc1ccccc1NC(=O)Nc1ccc(CC(=O)N2CCCC2/C=C/c2ccc(C(=O)O)cc2)cc1 (stereo not shown) [Compound 6, (E)-4-[2-[1-[4-[N′-(2-methylphenyl)ureido]phenylacetyl]-2-pyrrolidinyl]ethenyl]benzoic acid]",165 to 168 °C
12,"Cc1ccccc1NC(=O)Nc1ccc(CC(=O)N2CCCC2CCc2ccc(C(=O)O)cc2)cc1 (stereo not shown) [Compound 7, 4-[2-[1-[4-[N′-(2-methylphenyl)ureido]phenylacetyl]-2-pyrrolindinyl]ethyl]benzoic acid]",180 to 190 °C
13,"COc1cc(CC(=O)N2CCCC2C#Cc2ccc(C(=O)O)cc2)ccc1NC(=O)Nc1ccccc1 (stereo not shown) [Compound 13, 4-[2-[1-[3-methoxy4-(N′-phenylureido)phenylacetyl]-2-pyrrolidinyl]ethynyl]benzoic acid]",154 to 157 °C
14,"COc1cc(CC(=O)N2CCCC2C#Cc2ccc(C(=O)O)cc2)ccc1NC(=O)Nc1ccccc1F (stereo not shown) [Compound 33, 4-[2-[1-[4-[N′-(2-fluorophenyl)ureido)-3-methoxyphenylacetyl]-2-pyrrolidinyl]ethynyl]benzoic acid]",152 to 155 °C (dec.)
15,"COc1cc(C(=O)O)ccc1OCc1csc(Cc2ccc(NC(=O)Nc3ccccc3C)cc2)n1 [Compound 41, 3-methoxy-4-[2-[4-[N′-(2-methylphenyl)ureido]benzyl]4-thiazolyl]methoxybenzoic acid]",243 to 245 °C

# Continued, values first:
row,melting point,Structure (SMILES)
1,243 to 245 °C,"COc1cc(CC(=O)N2CCC[C@H]2CS(=O)(=O)c2cccc(C(=O)O)c2)ccc1NC(=O)Nc1ccccc1C (stereo in doubt) (as salt: salt) [Compound 21, 3-[[1-[3-methoxy-4-[N′-(2-methylphenyl)ureido]phenylacetyl]-2-pyrrolidinyl]methylsulfonyl]benzoic acid]"
2,123 to 126 °C,"COc1cc(CC(=O)N2CCC[C@H]2COc2ccc(C(=O)O)cc2F)ccc1NC(=O)Nc1ccccc1C (stereo in doubt) [Compound 38, 3-fluoro-4-[[1-[3-methoxy-4-[N′-(2-methylphenyl)ureido]phenylacetyl]-2-pyrrolidinyl]methoxy]benzoic acid]"
3,140 to 144 °C,"COc1cc(CC(=O)N2CCC[C@H]2COc2ccc(C(=O)O)cc2OC)ccc1NC(=O)Nc1ccccc1F (stereo in doubt) [Compound 39, 4-[1-[4-[N′-(2-fluorophenyl)ureido]-3-methoxyphenylacetyl]-2-pyrrolidinyl]methoxy-3-methoxy benzoic acid]"
4,125 to 128 °C,"COc1cc(CC(=O)N2CCC[C@H]2COc2ccc(C(=O)O)cn2)ccc1NC(=O)Nc1ccccc1C (stereo in doubt) [Compound 40, 2-[[1-[3-methoxy-4-[N′-(2-methylphenyl)ureido]phenylacetyl]-2-pyrrolidinyl]methoxy]pyridine-5-carboxylic acid]"
5,122 to 125 °C,"COc1cc(CC(=O)N2CCC[C@H]2COc2ncc(C(=O)O)cc2Cl)ccc1NC(=O)Nc1ccccc1C (stereo in doubt) [Compound 47, 3-chloro-2-[[1-[3-methoxy-4-[N′-(2-methylphenyl)ureido]phenylacetyl]-2-pyrrolidinyl]methoxy]pyridine-5-carboxylic acid]"
6,170 to 171 °C,"COc1cc(CC(=O)N2CC(N)C[C@H]2COc2ccc(C(=O)O)cc2)ccc1NC(=O)Nc1ccccc1C (stereo in doubt) [Compound 151, 4-[trans-4-amino-1-[3-methoxy-4-[N′-(2-methylphenyl)ureido]phenylacetyl]-(2S)-pyrrolidinyl]methoxybenzoic acid]"
7,125 to 128 °C,"COc1cc(CC(=O)N2CSC[C@H]2COc2ccc(C(=O)O)cc2)ccc1NC(=O)Nc1ccccc1C (stereo in doubt) [Compound 168, 4-[3-[3-methoxy-4-[N′-(2-methylphenyl)ureido]phenyl]acetyl-4-thiazolidinyl]methoxybenzoic acid]"
8,161 to 164 °C,"COc1cc(CC(=O)N2CCCC2C#Cc2ccc(C(=O)O)cc2)ccc1NC(=O)Nc1ccccc1C (stereo not shown) [Compound 14, 4-[2-[1-[3-methoxy-4-[N′-(2-methylphenyl)ureido]phenylacetyl]-2-pyrrolidinyl]ethynyl]benzoic acid]"
9,132 to 135 °C,COc1cc(CC(=O)N2CCC[C@H]2COc2ccc(C(=O)O)cc2OC)ccc1NC(=O)Nc1ccccc1C [Compound 27]
10,120 to 125 °C,"COc1cc(CC(=O)N2CCC[C@H]2COc2ccc(C(=O)O)cc2)ccc1NC(=O)Nc1ccccc1Br [Compound 59, 4-[1-[4-[N′-(2-bromophenyl)ureido]-3-methoxylphenylacetyl]-(2S)-pyrrolidinyl]methoxybenzoic acid]"
